Experimental data: patent US8802597B2, “Herbicidal pyrimidines” (E I du Pont de Nemours and Company, priority 2003, dated 2014)

Tests used:
Assay in all cases: Test C pre/postemergence
Type in all cases: in vivo
soybean (Glycine max) = conditions: for Soybean plant response rating: scale 0 to 100 (0 no effect, 100 complete control)
How it was run: (§1)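 Pre: seeds planted, sprayed same day. Post: 1- to 4-leaf plants (2–18 cm). Formulation: non-phytotoxic solvent + surfactant. Greenhouse 12–14 d; visual % control vs untreated, 0–100.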

[1] = test system: crabgrass (Digitaria sanguinalis); conditions: for Crabgrass plant response rating: scale 0 to 100 (0 no effect, 100 complete control)
How it was run: as §1

[2] = test system: yellow nutsedge (Cyperus esculentus); conditions: for Nutsedge, Yellow plant response rating: scale 0 to 100 (0 no effect, 100 complete control)
How it was run: as §1

[3] = Postemergence, 250 g ai/ha, scale 0 to 100
[4] = Preemergence, 16 g ai/ha, scale 0 to 100, 0 no effect, 100 complete control
[5] = Preemergence, 31 g ai/ha, scale 0 to 100, 0 no effect, 100 complete control
[6] = Preemergence, 62 g ai/ha, scale 0 to 100, 0 no effect, 100 complete control
[7] = Preemergence, 125 g ai/ha, scale 0 to 100
[8] = Postemergence, 500 g ai/ha, scale 0 to 100
[9] = Preemergence, 250 g ai/ha, scale 0 to 100
[10] = Preemergence, 500 g ai/ha, scale 0 to 100

With Nc1nc(-c2ccc(Cl)cc2)nc(C(=O)O)c1Br [Compound 88] the “Plant response rating (scale of 0 to 100), Soybean” value (soybean (Glycine max); Postemergence, 31 g ai/ha) was 100, the “Plant response rating (scale of 0 to 100), Soybean” value (soybean (Glycine max); Postemergence, 62 g ai/ha) was 100 and the “Soybean plant response rating” value (soybean (Glycine max); Postemergence, 125 g ai/ha) was 100. The “Plant response rating, Soybean” value (soybean (Glycine max); [3]) was 100, the “Plant response rating (scale of 0 to 100), Crabgrass” value ([1]; Postemergence, 31 g ai/ha) was 75 and the “Plant response rating (scale of 0 to 100), Crabgrass” value ([1]; Postemergence, 62 g ai/ha) was 80. For the same molecule, the “Crabgrass plant response rating” value ([1]; Postemergence, 125 g ai/ha) was 80, the “Plant response rating, Crabgrass” value [1, 3] was 85 and the “Plant response rating (scale of 0 to 100), Nutsedge, Yellow” value ([2]; Postemergence, 31 g ai/ha) was 40. For the same molecule, the “Plant response rating (scale of 0 to 100), Nutsedge, Yellow” value ([2]; Postemergence, 62 g ai/ha) was 45, the “Nutsedge, Yellow plant response rating” value ([2]; Postemergence, 125 g ai/ha) was 55 and the “Plant response rating, Nutsedge, Yellow” value [2, 3] was 75.

With CCCOC(=O)c1nc(C2CC2)nc(N)c1Cl [Compound 75] the “Plant response rating, Soybean” value (soybean (Glycine max); [4]) was 55, the “Plant response rating, Soybean” value (soybean (Glycine max); [5]) was 60 and the “Plant response rating, Soybean” value (soybean (Glycine max); [6]) was 100. The “Plant response rating, Crabgrass” value [1, 4] was 0, the “Plant response rating, Crabgrass” value [1, 5] was 10 and the “Plant response rating, Crabgrass” value [1, 6] was 20. For the same molecule, the “Plant response rating, Crabgrass” value [1, 7] was 60, the “Plant response rating, Nutsedge, Yellow” value [2, 4] was 0 and the “Plant response rating, Nutsedge, Yellow” value [2, 5] was 0. For the same molecule, the “Plant response rating, Nutsedge, Yellow” value [2, 6] was 0.

With Nc1nc(C2CC2)nc(C=NO)c1Br [Compound 27] the “Soybean plant response rating” value (soybean (Glycine max); Postemergence, 62 g ai/ha) was 30, the “Soybean plant response rating” value (soybean (Glycine max); Postemergence, 125 g ai/ha) was 45 and the “Plant response rating, Soybean” value (soybean (Glycine max); [3]) was 85. For the same molecule, the “Plant response rating, Soybean” value (soybean (Glycine max); [8]) was 95, the “Plant response rating, Soybean” value (soybean (Glycine max); [6]) was 0 and the “Plant response rating, Soybean” value (soybean (Glycine max); [7]) was 0. The “Plant response rating, Soybean” value (soybean (Glycine max); [9]) was 20, the “Plant response rating, Soybean” value (soybean (Glycine max); [10]) was 75 and the “Crabgrass plant response rating” value ([1]; Postemergence, 62 g ai/ha) was 0. For the same molecule, the “Crabgrass plant response rating” value ([1]; Postemergence, 125 g ai/ha) was 0, the “Plant response rating, Crabgrass” value [1, 3] was 5 and the “Plant response rating, Crabgrass” value [1, 8] was 30. The “Plant response rating, Crabgrass” value [1, 6] was 0, the “Plant response rating, Crabgrass” value [1, 7] was 0 and the “Plant response rating, Crabgrass” value [1, 9] was 0. The “Plant response rating, Crabgrass” value [1, 10] was 85, the “Nutsedge, Yellow plant response rating” value ([2]; Postemergence, 62 g ai/ha) was 0 and the “Nutsedge, Yellow plant response rating” value ([2]; Postemergence, 125 g ai/ha) was 0. The “Plant response rating, Nutsedge, Yellow” value [2, 3] was 0, the “Plant response rating, Nutsedge, Yellow” value [2, 8] was 0 and the “Plant response rating, Nutsedge, Yellow” value [2, 6] was 0. The “Plant response rating, Nutsedge, Yellow” value [2, 7] was 0, the “Plant response rating, Nutsedge, Yellow” value [2, 9] was 0 and the “Plant response rating, Nutsedge, Yellow” value [2, 10] was 20.

In the case of CCCCOC(=O)c1nc(C2CC2)nc(N)c1Cl [Compound 76], the “Plant response rating (scale of 0 to 100), Soybean” value (soybean (Glycine max); Postemergence, 16 g ai/ha) is reported as 95, the “Plant response rating (scale of 0 to 100), Soybean” value (soybean (Glycine max); Postemergence, 31 g ai/ha) is reported as 95 and the “Plant response rating (scale of 0 to 100), Soybean” value (soybean (Glycine max); Postemergence, 62 g ai/ha) is reported as 95. For the same molecule, the “Soybean plant response rating” value (soybean (Glycine max); Postemergence, 125 g ai/ha) was 100, the “Plant response rating, Soybean” value (soybean (Glycine max); [4]) was 50 and the “Plant response rating, Soybean” value (soybean (Glycine max); [5]) was 70. For the same molecule, the “Plant response rating, Soybean” value (soybean (Glycine max); [6]) was 95, the “Plant response rating (scale of 0 to 100), Crabgrass” value ([1]; Postemergence, 16 g ai/ha) was 55 and the “Plant response rating (scale of 0 to 100), Crabgrass” value ([1]; Postemergence, 31 g ai/ha) was 75. For the same molecule, the “Plant response rating (scale of 0 to 100), Crabgrass” value ([1]; Postemergence, 62 g ai/ha) was 85, the “Crabgrass plant response rating” value ([1]; Postemergence, 125 g ai/ha) was 90 and the “Plant response rating, Crabgrass” value [1, 4] was 0. For the same molecule, the “Plant response rating, Crabgrass” value [1, 5] was 0, the “Plant response rating, Crabgrass” value [1, 6] was 5 and the “Plant response rating, Crabgrass” value [1, 7] was 60. The “Plant response rating (scale of 0 to 100), Nutsedge, Yellow” value ([2]; Postemergence, 16 g ai/ha) was 10, the “Plant response rating (scale of 0 to 100), Nutsedge, Yellow” value ([2]; Postemergence, 31 g ai/ha) was 30 and the “Plant response rating (scale of 0 to 100), Nutsedge, Yellow” value ([2]; Postemergence, 62 g ai/ha) was 40. The “Nutsedge, Yellow plant response rating” value ([2]; Postemergence, 125 g ai/ha) was 60, the “Plant response rating, Nutsedge, Yellow” value [2, 4] was 0 and the “Plant response rating, Nutsedge, Yellow” value [2, 5] was 0. For the same molecule, the “Plant response rating, Nutsedge, Yellow” value [2, 6] was 0.
